{"source": "ChEMBL document CHEMBL5543136", "about": "“Discovery of Novel Heterotricyclic Compounds as DNA-Dependent Protein Kinase (DNA-PK) Inhibitors with Enhanced Chemosensitivity, Oral Bioavailability, and the Ability to Potentiate Cancer Immunotherapy” (J Med Chem, 2024)", "key": {"Jurkat [1]": {"test_system": "Jurkat", "test": "Synergistic antiproliferative activity against human Jurkat cells assessed as reduction in cell viability incubated for 48 hrs in presence of doxorubicin by CCK-8 assay", "assay_type": "functional, cell-based"}, "B16-F10 [2]": {"test_system": "B16-F10", "test": "Antitumor activity against mouse B16-F10 cells implanted in C57BL/6 mouse assessed as tumor growth inhibition at 10 mg/kg, ip administered once daily for 13 days relative to control", "assay_type": "functional", "details": "B16-F10, 312 h, time 13 day, read-out: TGI"}, "HepG2 [3]": {"test_system": "HepG2", "test": "Inhibition of DNA damage repair in human HepG2 cells assessed as reduction in gammaH2AX expression level by Western blot analysis", "assay_type": "functional, cell-based", "details": "dose 10-40 µM"}, "[4]": {"test": "AUC (0 to infinity) in male Sprague-Dawley rat at 2 mg/kg, iv measured after 48 hrs by LC-MS/MS analysis", "assay_type": "ADME, organism-based", "details": "in vivo"}, "[5]": {"test": "Tmax in male Sprague-Dawley rat at 2 mg/kg, iv measured after 48 hrs by LC-MS/MS analysis", "assay_type": "ADME, organism-based", "details": "in vivo"}, "[6]": {"test": "Apparent volume of distribution in male Sprague-Dawley rat at 2 mg/kg, iv measured after 48 hrs by LC-MS/MS analysis", "assay_type": "ADME, organism-based", "details": "in vivo, read-out: Vz"}, "B16-F10 [7]": {"test_system": "B16-F10", "test": "Immunomodulatory activity in mouse B16-F10 cells implanted in C57BL/6 mouse assessed as percentage of CD3 positive CD4 positive cells in tumor at 10 mg/kg, ip QD co-administered with PD-L1 antibody for 13 days by flow cytometric analysis (reference value: 0.86%)", "assay_type": "functional", "details": "time 13 day"}, "[8]": {"test": "Half-life in male Sprague-Dawley rat at 10 mg/kg, po measured after 48 hrs by LC-MS/MS analysis", "assay_type": "ADME, organism-based", "details": "in vivo"}, "Jurkat [9]": {"test_system": "Jurkat", "test": "Inhibition of DNA damage repair in human Jurkat cells assessed as reduction in gammaH2AX expression level by Western blot analysis", "assay_type": "functional, cell-based", "details": "dose 0.1-5 µM"}, "CT26 [10]": {"test_system": "CT26", "test": "Antitumor activity against mouse CT26 cells implanted in BALB/c mouse assessed as reduction in tumor weight at 10 mg/kg, ip administered once daily for 21 days relative to control", "assay_type": "functional", "set-up": "scale not given: the % may be the effect or the level left", "details": "time 21 day"}, "[11]": {"test": "Toxicity in BALB/c mouse implanted with mouse CT26 cells assessed as weight loss at 10 mg/kg, ip administered once daily for 21 days", "assay_type": "organism-based", "details": "in vivo, 504 h, time 21 day"}, "Cell membrane [12]": {"test_system": "Cell membrane", "test": "Induction of mitochondrial membrane potential loss in human Jurkat cells at 1 uM incubated for 24 hrs by JC-1 staining based flow cytometric analysis", "assay_type": "cell membranes"}, "[13]": {"target": "DNA-dependent protein kinase catalytic subunit (Homo sapiens, UniProt P78527)", "sequence (P78527 whole entry)": "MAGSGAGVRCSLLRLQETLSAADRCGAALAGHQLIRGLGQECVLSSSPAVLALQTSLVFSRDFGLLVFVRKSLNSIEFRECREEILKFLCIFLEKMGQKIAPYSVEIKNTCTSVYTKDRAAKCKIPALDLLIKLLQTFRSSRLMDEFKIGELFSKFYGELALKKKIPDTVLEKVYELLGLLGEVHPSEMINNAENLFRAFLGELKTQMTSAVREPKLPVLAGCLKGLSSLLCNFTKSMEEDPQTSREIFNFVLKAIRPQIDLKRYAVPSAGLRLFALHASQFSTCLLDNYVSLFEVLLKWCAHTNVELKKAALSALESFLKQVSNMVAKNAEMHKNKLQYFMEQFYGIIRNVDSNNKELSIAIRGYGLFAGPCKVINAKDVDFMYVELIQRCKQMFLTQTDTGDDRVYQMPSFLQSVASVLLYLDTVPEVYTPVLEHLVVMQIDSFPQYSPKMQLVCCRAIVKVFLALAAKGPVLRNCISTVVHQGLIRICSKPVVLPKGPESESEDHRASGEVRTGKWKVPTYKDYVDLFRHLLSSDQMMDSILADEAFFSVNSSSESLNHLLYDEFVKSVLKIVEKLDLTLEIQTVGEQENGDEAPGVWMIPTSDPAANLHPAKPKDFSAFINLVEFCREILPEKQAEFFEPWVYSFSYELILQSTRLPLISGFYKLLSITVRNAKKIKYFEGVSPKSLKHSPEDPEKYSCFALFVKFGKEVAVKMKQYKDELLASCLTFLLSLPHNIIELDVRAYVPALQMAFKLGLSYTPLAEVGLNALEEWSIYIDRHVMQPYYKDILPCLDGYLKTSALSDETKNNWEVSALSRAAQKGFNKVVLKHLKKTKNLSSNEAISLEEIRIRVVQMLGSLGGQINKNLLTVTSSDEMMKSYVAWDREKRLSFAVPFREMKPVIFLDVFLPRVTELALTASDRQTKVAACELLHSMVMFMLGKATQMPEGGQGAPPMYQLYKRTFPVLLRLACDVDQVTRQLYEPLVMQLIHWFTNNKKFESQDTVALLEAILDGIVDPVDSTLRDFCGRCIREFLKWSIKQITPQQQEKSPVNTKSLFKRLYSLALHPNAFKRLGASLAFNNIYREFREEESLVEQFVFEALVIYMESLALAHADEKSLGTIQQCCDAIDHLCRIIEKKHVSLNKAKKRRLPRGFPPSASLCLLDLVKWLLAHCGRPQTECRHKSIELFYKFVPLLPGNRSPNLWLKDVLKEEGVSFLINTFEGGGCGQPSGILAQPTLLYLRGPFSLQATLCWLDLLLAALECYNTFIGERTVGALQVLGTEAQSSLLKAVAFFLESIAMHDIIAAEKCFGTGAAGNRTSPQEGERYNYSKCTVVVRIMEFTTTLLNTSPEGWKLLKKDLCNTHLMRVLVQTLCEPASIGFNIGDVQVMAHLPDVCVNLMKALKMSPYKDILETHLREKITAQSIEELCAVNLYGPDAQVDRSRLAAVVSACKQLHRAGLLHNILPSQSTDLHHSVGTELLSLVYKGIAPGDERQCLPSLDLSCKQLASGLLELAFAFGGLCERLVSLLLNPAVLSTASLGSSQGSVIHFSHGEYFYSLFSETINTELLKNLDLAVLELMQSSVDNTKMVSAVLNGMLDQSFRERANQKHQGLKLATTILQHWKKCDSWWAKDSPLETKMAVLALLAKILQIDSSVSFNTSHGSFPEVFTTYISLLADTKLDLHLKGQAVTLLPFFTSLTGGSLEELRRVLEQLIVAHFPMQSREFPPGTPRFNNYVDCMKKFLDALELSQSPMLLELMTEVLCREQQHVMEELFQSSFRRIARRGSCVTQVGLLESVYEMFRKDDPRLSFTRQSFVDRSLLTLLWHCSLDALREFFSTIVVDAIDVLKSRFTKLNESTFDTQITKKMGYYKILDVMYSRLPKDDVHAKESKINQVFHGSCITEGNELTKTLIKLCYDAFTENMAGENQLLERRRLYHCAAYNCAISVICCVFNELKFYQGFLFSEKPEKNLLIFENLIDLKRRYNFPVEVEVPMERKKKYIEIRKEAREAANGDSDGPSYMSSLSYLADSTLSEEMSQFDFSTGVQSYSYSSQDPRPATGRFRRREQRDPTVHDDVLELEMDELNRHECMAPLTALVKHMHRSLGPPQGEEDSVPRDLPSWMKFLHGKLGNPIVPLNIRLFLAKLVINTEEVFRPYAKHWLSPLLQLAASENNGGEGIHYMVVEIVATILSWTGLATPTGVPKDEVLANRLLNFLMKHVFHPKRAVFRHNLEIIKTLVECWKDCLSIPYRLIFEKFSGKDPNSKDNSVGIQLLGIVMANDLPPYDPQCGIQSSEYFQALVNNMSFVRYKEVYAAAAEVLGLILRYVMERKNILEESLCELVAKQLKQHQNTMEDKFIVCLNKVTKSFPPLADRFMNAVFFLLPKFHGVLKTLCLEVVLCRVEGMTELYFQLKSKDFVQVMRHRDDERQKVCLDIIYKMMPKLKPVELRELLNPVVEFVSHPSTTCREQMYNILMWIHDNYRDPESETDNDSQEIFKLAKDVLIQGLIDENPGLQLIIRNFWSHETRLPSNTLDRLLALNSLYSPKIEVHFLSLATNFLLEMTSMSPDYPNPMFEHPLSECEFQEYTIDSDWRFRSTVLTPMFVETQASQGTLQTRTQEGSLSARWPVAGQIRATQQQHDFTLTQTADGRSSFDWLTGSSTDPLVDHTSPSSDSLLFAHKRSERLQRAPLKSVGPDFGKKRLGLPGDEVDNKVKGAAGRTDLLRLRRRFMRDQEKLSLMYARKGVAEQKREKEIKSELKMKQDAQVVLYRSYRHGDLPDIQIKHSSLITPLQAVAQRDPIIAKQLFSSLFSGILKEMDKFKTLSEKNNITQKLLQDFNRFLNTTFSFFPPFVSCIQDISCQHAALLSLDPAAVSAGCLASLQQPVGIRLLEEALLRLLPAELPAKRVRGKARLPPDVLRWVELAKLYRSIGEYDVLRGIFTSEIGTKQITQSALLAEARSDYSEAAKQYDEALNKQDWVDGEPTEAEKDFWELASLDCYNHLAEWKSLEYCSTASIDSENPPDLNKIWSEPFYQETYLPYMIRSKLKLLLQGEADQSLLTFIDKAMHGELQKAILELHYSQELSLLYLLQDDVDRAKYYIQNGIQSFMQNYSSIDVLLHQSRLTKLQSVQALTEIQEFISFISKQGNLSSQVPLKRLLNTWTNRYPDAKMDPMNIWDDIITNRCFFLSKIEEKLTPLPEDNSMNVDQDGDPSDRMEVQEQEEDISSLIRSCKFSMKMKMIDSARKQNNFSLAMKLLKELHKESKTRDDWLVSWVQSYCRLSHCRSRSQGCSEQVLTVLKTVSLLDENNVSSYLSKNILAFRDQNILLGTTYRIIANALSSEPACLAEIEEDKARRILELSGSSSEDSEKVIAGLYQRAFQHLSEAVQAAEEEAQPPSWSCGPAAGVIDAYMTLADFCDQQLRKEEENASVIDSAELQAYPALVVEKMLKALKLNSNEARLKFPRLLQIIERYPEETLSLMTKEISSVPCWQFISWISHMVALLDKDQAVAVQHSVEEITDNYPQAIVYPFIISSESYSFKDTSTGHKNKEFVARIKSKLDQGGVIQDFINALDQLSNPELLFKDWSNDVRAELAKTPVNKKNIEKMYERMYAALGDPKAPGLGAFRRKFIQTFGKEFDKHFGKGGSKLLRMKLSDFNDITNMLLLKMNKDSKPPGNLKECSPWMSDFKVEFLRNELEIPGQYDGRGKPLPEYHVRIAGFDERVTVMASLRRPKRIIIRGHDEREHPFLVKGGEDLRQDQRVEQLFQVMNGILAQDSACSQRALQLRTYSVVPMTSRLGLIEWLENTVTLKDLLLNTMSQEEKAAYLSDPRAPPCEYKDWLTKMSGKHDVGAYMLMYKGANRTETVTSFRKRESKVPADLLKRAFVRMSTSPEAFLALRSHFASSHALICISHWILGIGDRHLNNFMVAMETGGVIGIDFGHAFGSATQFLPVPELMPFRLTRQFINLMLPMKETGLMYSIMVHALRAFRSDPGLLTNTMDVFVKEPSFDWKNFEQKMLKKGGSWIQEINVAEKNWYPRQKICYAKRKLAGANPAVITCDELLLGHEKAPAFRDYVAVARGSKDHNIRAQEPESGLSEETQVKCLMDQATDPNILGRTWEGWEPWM", "test": "Inhibition of human full-length DNA-PK using EPPLSQEAFADLWKK as substrate incubated for 60 mins in presence of ATP by ADP-Glo kinase assay"}, "[14]": {"test": "Toxicity in C57BL/6 mouse implanted with mouse B16-F10 cells assessed as change in liver histopathology at 10 mg/kg, ip administered once daily for 13 days by H&E staining based analysis", "assay_type": "organism-based", "details": "in vivo, 312 h, time 13 day"}, "[15]": {"test": "Toxicity in C57BL/6 mouse implanted with mouse B16-F10 cells assessed as change in kidney histopathology at 10 mg/kg, ip administered once daily for 13 days by H&E staining based analysis", "assay_type": "organism-based", "details": "in vivo, 312 h, time 13 day"}, "[16]": {"test": "AUC (0 to t) in male Sprague-Dawley rat at 10 mg/kg, po measured after 48 hrs by LC-MS/MS analysis", "assay_type": "ADME, organism-based", "details": "in vivo"}, "[17]": {"test": "Apparent volume of distribution in male Sprague-Dawley rat at 10 mg/kg, po measured after 48 hrs by LC-MS/MS analysis", "assay_type": "ADME, organism-based", "details": "in vivo"}, "[18]": {"test": "Toxicity in C57BL/6 mouse implanted with mouse B16-F10 cells assessed as effect on body weight at 10 mg/kg, ip administered once daily for 13 days", "assay_type": "organism-based", "details": "in vivo, 312 h, time 13 day"}, "[19]": {"test": "Toxicity in C57BL/6 mouse implanted with mouse B16-F10 cells assessed as change in lung histopathology at 10 mg/kg, ip administered once daily for 13 days by H&E staining based analysis", "assay_type": "organism-based", "details": "in vivo, 312 h, time 13 day"}, "B16-F10 [20]": {"test_system": "B16-F10", "test": "Immunomodulatory activity in mouse B16-F10 cells implanted in C57BL/6 mouse assessed as percentage of CD3 positive CD8 positive cells in tumor at 10 mg/kg, ip administered once daily for 13 days by flow cytometric analysis (reference value: 0.99%)", "assay_type": "functional", "details": "time 13 day"}, "[21]": {"test": "Toxicity in BALB/c mouse implanted with mouse CT26 cells assessed as weight loss at 10 mg/kg, ip QD co-administered with doxorubicin for 21 days", "assay_type": "organism-based", "details": "in vivo, 504 h, time 21 day"}, "HepG2 [22]": {"test_system": "HepG2", "test": "Inhibition of DNA damage repair in human HepG2 cells assessed as reduction in gammaH2AX fluorescence intensity by DAPI staining based immunofluorescence analysis", "assay_type": "functional, cell-based", "details": "dose 10-40 µM"}, "[23]": {"test": "Half-life in male Sprague-Dawley rat at 2 mg/kg, iv measured after 48 hrs by LC-MS/MS analysis", "assay_type": "ADME, organism-based", "details": "in vivo"}, "[24]": {"test": "Clearance in male Sprague-Dawley rat at 2 mg/kg, iv measured after 48 hrs by LC-MS/MS analysis", "assay_type": "ADME, organism-based", "details": "in vivo"}, "Cell membrane [25]": {"test_system": "Cell membrane", "test": "Induction of mitochondrial membrane potential loss in human Jurkat cells at 1 uM incubated for 24 hrs in presence of doxorubicin by JC-1 staining based flow cytometric analysis", "assay_type": "cell membranes"}, "[26]": {"test": "Toxicity in C57BL/6 mouse implanted with mouse B16-F10 cells assessed as effect on body weight at 10 mg/kg, ip QD co-administered with PD-L1 antibody for 13 days", "assay_type": "organism-based", "details": "in vivo, 312 h, time 13 day"}, "[27]": {"test": "Selectivity ratio of IC50 for antiproliferative activity against human Jurkat cells to IC50 for synergistic antiproliferative activity against human Jurkat cells in presence of doxorubicin", "assay_type": "functional"}, "[28]": {"test": "Clearance in male Sprague-Dawley rat at 10 mg/kg, po measured after 48 hrs by LC-MS/MS analysis", "assay_type": "ADME, organism-based", "details": "in vivo"}, "[29]": {"test": "Selectivity ratio of IC50 for antiproliferative activity against mouse CT26 cells to IC50 for synergistic antiproliferative activity against mouse CT26 cells in presence of doxorubicin", "assay_type": "functional"}, "B16-F10 [30]": {"test_system": "B16-F10", "test": "Immunomodulatory activity in mouse B16-F10 cells implanted in C57BL/6 mouse assessed as percentage of CD3 positive CD4 positive cells in tumor at 10 mg/kg, ip QD co-administered with SWS1 for 13 days by flow cytometric analysis (reference value: 0.86%)", "assay_type": "functional", "details": "time 13 day"}, "CT26 [31]": {"test_system": "CT26", "test": "Antitumor activity against mouse CT26 cells implanted in BALB/c mouse assessed as reduction in tumor volume by measuring tumor growth inhibition at 10 mg/kg, ip QD co-administered with doxorubicin for 21 days relative to control", "assay_type": "functional", "details": "CT26, 504 h, time 21 day, read-out: TGI"}, "B16-F10 [32]": {"test_system": "B16-F10", "test": "Synergistic antiproliferative activity against mouse B16-F10 cells assessed as reduction in cell viability incubated for 48 hrs in presence of doxorubicin by CCK-8 assay", "assay_type": "functional, cell-based", "details": "B16-F10, 48 h"}, "[33]": {"test": "Toxicity in BALB/c mouse implanted with mouse CT26 cells assessed as death at 10 mg/kg, ip QD co-administered with doxorubicin for 21 days", "assay_type": "organism-based", "details": "in vivo, 504 h, time 21 day"}, "B16-F10 [34]": {"test_system": "B16-F10", "test": "Antiproliferative activity against mouse B16-F10 cells assessed as reduction in cell viability incubated for 48 hrs by CCK-8 assay", "assay_type": "functional, cell-based", "details": "B16-F10, 48 h"}, "CT26 [35]": {"test_system": "CT26", "test": "Synergistic antiproliferative activity against mouse CT26 cells assessed as reduction in cell viability incubated for 48 hrs in presence of doxorubicin by CCK-8 assay", "assay_type": "functional, cell-based", "details": "CT26, 48 h"}}, "note": "Active and inactive are the calls of the source. No cut-off for these calls is given here.", "data": [{"smiles": "Cc1cc2cccnc2cc1Nc1ncc2c(n1)N(C1CCOCC1)Cc1nncn1-2", "values": [{"measurement": "IC50", "setting": "Jurkat [1]", "result": 0.02, "unit": "µM"}, {"measurement": "inhibition in vivo at 10 mg/kg", "setting": "B16-F10 [2]", "result": 35.9, "unit": "%"}, {"measurement": "inhibition", "setting": "HepG2 [3]", "result": "Dose-Dependent Effect"}, {"measurement": "AUC(0-inf)", "setting": "[4]", "result": 605, "unit": "ng·h/mL"}, {"measurement": "Tmax", "setting": "[5]", "result": 4.98, "unit": "min"}, {"measurement": "Vd", "setting": "[6]", "result": 4.7, "unit": "L/kg"}, {"measurement": "Activity", "setting": "B16-F10 [7]", "result": 4.06, "unit": "%"}, {"measurement": "half-life", "setting": "[8]", "result": 2, "unit": "h"}, {"measurement": "inhibition", "setting": "Jurkat [9]", "result": "Dose-Dependent Effect"}, {"measurement": "Activity", "setting": "CT26 [10]", "result": 30.8, "unit": "%"}, {"measurement": "Activity", "setting": "[11]", "result": "Non-Toxic"}, {"measurement": "Activity", "setting": "Cell membrane [12]", "result": "inactive"}, {"measurement": "IC50", "setting": "[13]", "result": 0.00011, "unit": "µM"}, {"measurement": "Activity", "setting": "[14]", "result": "Non-Toxic"}, {"measurement": "Activity", "setting": "[15]", "result": "Non-Toxic"}, {"measurement": "AUC(0-t) at 48 h", "setting": "[16]", "result": 950, "unit": "ng·h/mL"}, {"measurement": "Vz", "setting": "[17]", "result": 38.8, "unit": "L/kg"}, {"measurement": "Activity", "setting": "[18]", "result": "Non-Toxic"}, {"measurement": "Activity", "setting": "[19]", "result": "Non-Toxic"}, {"measurement": "Activity", "setting": "B16-F10 [20]", "result": 1.12, "unit": "%"}, {"measurement": "Activity", "setting": "[21]", "result": "Non-Toxic"}, {"measurement": "inhibition", "setting": "HepG2 [22]", "result": "Dose-Dependent Effect"}, {"measurement": "half-life", "setting": "[23]", "result": 1, "unit": "h"}, {"measurement": "clearance", "setting": "[24]", "result": 55, "unit": "mL/min/kg"}, {"measurement": "Activity", "setting": "Cell membrane [25]", "result": "Active"}, {"measurement": "Activity", "setting": "[26]", "result": "Non-Toxic"}, {"measurement": "Ratio IC50", "setting": "[27]", "result": 30}, {"measurement": "CL/F", "setting": "[28]", "result": 210, "unit": "mL/min/kg"}, {"measurement": "Ratio IC50", "setting": "[29]", "result": 4.5}, {"measurement": "Activity", "setting": "B16-F10 [30]", "result": 4.02, "unit": "%"}, {"measurement": "inhibition in vivo at 10 mg/kg", "setting": "CT26 [31]", "result": 59.5, "unit": "%"}, {"measurement": "IC50", "setting": "B16-F10 [32]", "result": 4.9, "unit": "µM"}, {"measurement": "Activity", "setting": "[33]", "result": "Non-Toxic"}, {"measurement": "IC50", "setting": "B16-F10 [34]", "result": 10.3, "unit": "µM"}, {"measurement": "IC50", "setting": "CT26 [35]", "result": 9.7, "unit": "µM"}]}]}
